Source: patent publication EP2475361B1, “N-SUBSTITUTED BENZENEPROPANAMIDES FOR USE IN THE TREATMENT OF PAIN AND INFLAMMATION” (Novaremed Ltd., priority 2009, dated 2011)

Assays:
[1] = system: Balb/c mice; assay: Hot-Plate Test (antinociceptive effect, sub-chronic administration); assay type: in vivo; conditions: hot plate 52°C; 0.1 or 5 mg/Kg po daily for 16 days; tested on days 1, 8 and 15; compared with Diclofenac 10 mg/kg
From the text: The objective of the study was to assess antinociceptive activity of tested items in the hot plate tests in mice, when administered sub-chronically. Measuring paw licking or jumping response time elapses following placement on heated surface (hot plate) was used to determine potential antinociceptive effect in mice.
A total of 42 Balb/c mice (12weeks old) were utilized. The mice were approximately 25g males at study initiation. The minimum and maximum weights of the group were within a range of ±10 % of group mean weight.
Compounds 2 and 3 were tested and compared with Diclofenac® (Perigo). DMSO solutions were used. Six groups of mice (each having n=7 or n=8 mice) were tested, the last group receiving Diclofenac®.
All groups received the drugs daily po for 16 days. Hot plate experiments were performed on days; 1, 8 and 15.
The hot plate is maintained thermostatically at a temperature of 52°C. One hour before the administration of the drugs, mice are tested in the hot plate. At time 0 the mice are administered with the test compound and the response to the hot plate is measured again at different times: 60,120,180, 240, 300 and 360 min.
Results are expressed as: Delta from maximum response [baseline vs. maximum response]; Absolute measures over time; and Accumulated time.

[2] = system: Balb/c mice; assay: Formalin test; assay type: in vivo; conditions: formalin 1% intraplantar 3 h or 4 h after treatment; 0.2, 1, 2.5 mg/kg i.p.; paw licking 0-5 min and 20-30 min; Figures 12a-12e
Protocol: Formalin test. The method used was similar to that described by Hunscaar and Hole (1987) "The formalin test in mice: dissociation between inflammatory and non-inflammatory pain," Pain 30, pp.[…].
Five animals are used in each group and two to three hours after oral administration of the conjugates, 40 µl or 20 µl (rats or mice, respectively) of a 1% formalin (in 0.9% saline) solution is injected subcutaneously into the dorsal surface hind paw. The formalin induced typical flinching behaviour of the injected paw was counted. The animals were returned to a glass chamber and the total time spent by the animal licking or biting the injected paw was measured. Formalin induced pain behaviour is biphasic. The duration of paw licking was determined during the following two time periods: 0-5 min (first-neurogenic phase) and 20-30 min (second-inflammatory phase) after formalin injection. Part a. Male mice (Balb/c mice, 27 weeks old, not naïve), were divided in 4 groups (5 mice per group) and treated (0 min, i.p.) with the following formulations, respectively: […]
Part b. Male mice (Balb/c mice, 27 weeks old, not naive), were divided in 4 groups (5 mice in groups) and treated (0 min, i.p.) with the following formulations, respectively: […]

Row | SMILES | pain relief (antinociceptive effect) [1] | anti-inflammatory properties [2]
1 | CC(O)COCC(Cc1ccc(O)cc1)NC(=O)CCc1ccccc1 (stereo not drawn) [Compound 2] | effective as pain relievers | anti-inflammatory properties
2 | O=C(CCc1ccccc1)NC(COCCO)Cc1ccc(O)cc1 (stereo not drawn) [Compound 3] | effective as pain relievers | 
